Assays:
[1] = system: biochemical bone/muscle markers; test: Biochemical bone/muscle markers (PINP, CTx, bone specific and total alkaline phosphatase), trials IDA-04/IDA-05; type: in vivo, human
Excerpt: The term “serum Bone Specific Alkaline Phosphatase” as used herein refers to the level of Bone specific Alkaline Phosphatase in blood serum as measured using the Beckman-Coulter Ostase assay which is a one-step immunoenzymatic chemiluminescence assay using a mouse monoclonal antibody specific to Bone Specific Alkaline Phosphatase (BAP).
The term “serum Alkaline Phosphatase” as used herein refers to the level of Alkaline Phosphatase in blood serum as measured enzymatically using a Roche Modular Analyzer. In the presence of magnesium and zinc ions, p-nitrophenyl phosphate is cleaved by phosphatase into phosphate and p-nitrophenol. The p-nitrophenol released is proportional to the Alkaline Phosphatase activity and is measured photometrically.
The term “serum N-terminal Propeptide of Type I Collagen (PINP)” as used herein refers to the level of PINP in blood serum as measured using a sandwich principle, electrochemiluminescence immunoassay (ECLIA) on a Cobas e601 Analyzer. During the first incubation, PINP in the sample and a biotinylated monoclonal PINP-specific antibody are incubated together. During the second incubation, streptavidin-coated labelled microparticles and a monoclonal PINP-specific antibody labelled with ruthenium complex (Trs (2,2-bipyridyl)ruthenium (II)-complex (Ru(bpy)23+)) are added to form a sandwich complex, which binds to the solid phase via interaction of biotin and streptavidin. The reaction mixture is aspirated into the measuring cell where the microparticles are magnetically captured onto the surface of the electrode. A voltage is applied to the electrode, which induces chemiluminescent emission, which is measured by a photomultiplier. Results are determined via a calibration curve, which is instrument-specifically generated by a 2-point calibration and a master curve provided via the reagent barcode.
The term “serum Carboxy-terminal Collagen Crosslinks (CTx)” as used herein refers to the level of CTx in blood serum as measured using a sandwich principle, electrochemiluminescence immunoassay (ECLIA) on a Cobas e601 Analyzer. During the first incubation, 50 μL of sample and biotinylated monoclonal anti-beta-CrossLaps antibodies are incubated together. During the second incubation, streptavidin-coated labelled microparticles and a monoclonal P-beta-CrossLaps-specific antibody labelled with ruthenium complex are added to form a sandwich complex, which binds to the solid phase via interaction of biotin and streptavidin. The reaction mixture is aspirated into the measuring cell where the microparticles are magnetically captured onto the surface of the electrode. Unbound substances are then removed with ProCell. A voltage is applied to the electrode, which induces chemiluminescent emission, which is measured by a photomultiplier. Results are determined via a calibration curve, which is instrument-specifically generated by a 2-point calibration and a master curve provided via the reagent barcode.
The trial was a randomized, open-label, comparative trial. Subjects with Iron Deficiency Anaemia (IDA) were randomized 1:1 to one treatment course of one of the following treatments: • Group A: iron isomaltoside 1000 (Monofer®, Pharmacosmos, Holbok, Denmark, termed iron isomaltoside in the following), 1000 mg at baseline • Group B: ferric carboxymaltose (Ferinject®/Injectafer®, Vifor Inc, Switzerland), 750 mg at baseline and day 7, cumulative dose: 1500 mg […]

human intact FGF23 = test: Intact FGF23 (iFGF23) over time, two-site ELISA, trials IDA-04/IDA-05; type: in vivo
Experimental: The trial was a randomized, open-label, comparative trial. Subjects with Iron Deficiency Anaemia (IDA) were randomized 1:1 to one treatment course of one of the following treatments: • Group A: iron isomaltoside 1000 (Monofer®, Pharmacosmos, Holbok, Denmark, termed iron isomaltoside in the following), 1000 mg at baseline • Group B: ferric carboxymaltose (Ferinject®/Injectafer®, Vifor Inc, Switzerland), 750 mg at baseline and day 7, cumulative dose: 1500 mg
The secondary safety endpoints were the following: • Incidence of s-phosphate below 1.0 mg/dL at any time from baseline to day 35 • Time with hypophosphatemia (i.e. time with s-phosphate <2.0 mg/dL) from baseline to day 35 • Proportion of subjects with hypophosphatemia at day 35 • Absolute [Δ] and relative [%] changes in s-phosphate from baseline to 1, 7, 8, 14, 21, and 35 • Fractional phosphate urinary excretion at 1, 7, 8, 14, 21, and 35 • Change in iFGF23, cFGF23, vitamin D (25, 1,25, 24,25), PTH, and ionized calcium from baseline to 1, 7, 8, 14, 21, and 35 • Type and incidence of AEs • Serious or severe hypersensitivity reaction starting on or after the first dose of randomized treatment (i.e. treatment emergent). The hypersensitivity terms were defined as standardised Medical Dictionary for Regulatory Activities query (SMQ) terms. […]
The following safety laboratory assessments were analysed: • S-phosphate: inorganic phosphorous forms an ammonium phosphomolybdate complex having the formula (NH4)3[PO4](MoO3)12 with ammonium molybdate in the presence of sulfuric acid. The complex was determined photometrically in the ultraviolet region (340 nm) of the spectrum using the Roche Modular and Cobas Analyzer. • iFGF23 and cFGF23: the human intact FGF23 was measured by the 2nd generation Elisa kit manufactured by Immonotropics, Inc, San Clemente, CA. […] The human C-terminal FGF23 was measured by the Elisa kit manufactured by Immonotropics, Inc, San Clemente, CA. […] After evaporation under nitrogen, the residue was reconstituted and analyzed using Liquid Chromatography (LC) with Tandem Mass Spectrometric detection (MS/MS). […] A direct relationship exists between the amount of PTH present in the patient sample and the amount of relative light units (RLUs) detected by the system. • Ionized calcium: Measured by the IL GEM Premier 3500 PAK cartridge. […]

intact FGF23 = conditions: women with IDA secondary to heavy uterine bleeding; Wolf et al., 2013; cited from earlier work

- Alkaline Phosphatase ([1]; compared to IMM): statistically significant increase
- Bone Specific Alkaline Phosphatase ([1]; compared to IMM): statistically significant increase
- CTx values ([1]; compared to IMM): statistically significant lower
- N-terminal PINP values ([1]; compared to IMM): statistically significant lower
- bone turnover ([1]; treatment according to current practice): increased
- iFGF23 after administration (human intact FGF23; first administration (750 mg), then gradually declined over days): increased sharply
- increase in iFGF23 after second dose relative to first dose (human intact FGF23; repeated dosing one week apart): 2-3 fold
- iFGF23 on the second administration, relative to the initial level (human intact FGF23; second administration (750 mg, day 7)): several fold higher
Substance: ferric carboxymaltose [FCM]
- iFGF23 levels (intact FGF23): temporarily increased

From patent publication US20260091015A1, “TREATING IRON DEFICIENCY WITH FERRIC CARBOXYMALTOSE” (PHARMACOSMOS HOLDING A/S, priority 2018, published 2026)
